System: R. pulicis
Type: cell-based, Rickettsia pulicis

**Q.** CC[C@H]1OC(=O)[C@H](C)[C@@H](O[C@H]2C[C@@](C)(OC)[C@@H](O)[C@H](C)O2)[C@H](C)[C@@H](O[C@@H]2O[C@H](C)C[C@H](N(C)C)[C@H]2O)[C@](C)(O)C[C@@H](C)C(=O)[C@H](C)[C@@H](O)[C@]1(C)O [Erythromycin] was tested. Which “resistance/sensitivity of the isolate to the antibiotic” value did it give?
**A.** Its value is “resistant”.

From patent US20030003508A1 (priority 1999, published 2003)
